In brackets after ≈: the same amount, converted by molar mass. Activity calls are given as the source filed them. The calls are words filed in the database; no cut-off is given here.
Key:
[1] = Cytotoxicity against human MRC5 cells assessed as inhibition of cell growth; format: toxicity, cell-based
[2] = Selectivity index, ratio of IC50 for cytotoxicity against human MRC5 cells assessed as inhibition of cell growth to IC50 for antiplasmodial activity against […] assessed as parasite growth inhibition; format: toxicity, cell-based; conditions: MRC5 cells versus Plasmodium falciparum FCR3, read-out: Ratio IC50
Staphylococcus aureus [3] = assay: Antimicrobial activity against Staphylococcus aureus KB210 ATCC 6538P at > 10 ug incubated for 1 to 2 days by paper disc method; format: functional, organism-based; conditions: dose > 10.0 µg, time 1-2 day
[4] = Selectivity index, ratio of IC50 for cytotoxicity against human MRC5 cells assessed as inhibition of cell growth to IC50 for antiplasmodial activity against chloroquine-resistant Plasmodium falciparum K1 assessed as parasite growth inhibition; format: toxicity, cell-based; conditions: MRC5 cells versus Plasmodium falciparum K1, read-out: Ratio IC50
[5] = Acute toxicity in ICR mouse assessed as sedation at 60 mg/kg, ip and measured for 2 hrs; format: organism-based; conditions: in vivo
Kocuria rhizophila [6] = assay: Antimicrobial activity against Kocuria rhizophila KB212 ATCC 9341 assessed as reduction in bacterial growth incubated for 1 to 2 days by paper disc method; format: functional, organism-based; conditions: time 1-2 day
Plasmodium falciparum [7] = assay: Antiplasmodial activity against chloroquine-resistant Plasmodium falciparum K1 assessed as parasite growth inhibition; format: functional, organism-based
Escherichia coli = assay: Antimicrobial activity against Escherichia coli KB213 NIHJ assessed as reduction in bacterial growth incubated for 1 to 2 days by paper disc method; format: functional, organism-based; conditions: time 1-2 day
Candida albicans = assay: Antimicrobial activity against Candida albicans KF assessed as reduction in […] growth KF1 ATCC 64584 incubated for 1 to 2 days by paper disc method; format: functional, organism-based; conditions: time 1-2 day
Staphylococcus aureus [8] = assay: Antimicrobial activity against Staphylococcus aureus KB210 ATCC 6538P assessed as reduction in bacterial growth incubated for 1 to 2 days by paper disc method; format: functional, organism-based; conditions: time 1-2 day
Plasmodium falciparum [9] = assay: Antiplasmodial activity against chloroquine-sensitive Plasmodium falciparum FCR3 assessed as parasite growth inhibition; format: functional, organism-based
Plasmodium berghei = assay: Antiplasmodial activity against Plasmodium berghei infected in ICR mouse model assessed as reduction in parasitaemia at 5 mg/kg, ip measured for 4 days by peters 4 day suppressive test; format: functional; design: scale not given: the % may be the effect or the level left
Xanthomonas oryzae = assay: Antimicrobial activity against Xanthomonas oryzae KB88 assessed as reduction in bacterial growth incubated for 1 to 2 days by paper disc method; format: functional, organism-based; conditions: time 1-2 day
[10] = Toxicity in ICR mouse assessed as body weight loss at 5 mg/kg, ip measured for 4 days; format: organism-based; conditions: in vivo, 96 h, time 4 day
Plasmodium falciparum [11] = assay: Antiplasmodial activity against Plasmodium falciparum Dd2 assessed as inhibition of parasite growth; format: functional, organism-based
Kocuria rhizophila [12] = assay: Antimicrobial activity against Kocuria rhizophila KB212 ATCC 9341 at 30 ug incubated for 1 to 2 days by paper disc method; format: functional, organism-based; conditions: dose 30.0 µg, time 1-2 day
B16 = assay: Cytotoxicity against mouse B16 cells assessed as reduction in cell growth incubated for 3 days; format: functional, cell-based; conditions: B16, 72 h
HeLa S3 = assay: Cytotoxicity against human HeLa S3 cells assessed as reduction in cell growth incubated for 3 days; format: functional, cell-based; conditions: HeLa S3, 72 h
[13] = Selectivity index, ratio of IC50 for cytotoxicity against human MRC5 cells assessed as inhibition of cell growth to IC50 for antimalarial activity against […] assessed as parasite growth inhibition; format: toxicity, cell-based; conditions: MRC5 cells versus Plasmodium falciparum FCR3, read-out: Ratio IC50
Plasmodium falciparum [14] = assay: Antimalarial activity against chloroquine-resistant Plasmodium falciparum K1 assessed as parasite growth inhibition; format: functional, organism-based
[15] = Selectivity index, ratio of IC50 for cytotoxicity against human MRC5 cells assessed as inhibition of cell growth to IC50 for antimalarial activity against chloroquine-resistant Plasmodium falciparum K1 assessed as parasite growth inhibition; format: toxicity, cell-based; conditions: MRC5 cells versus Plasmodium falciparum K1, read-out: Ratio IC50

SMILES | IC50 [1] | selectivity ratio [2] | Activity (Staphylococcus aureus [3]) | selectivity ratio [4] | Activity (Kocuria rhizophila [6]) | IC50 (Plasmodium falciparum [7]) | Activity (Escherichia coli) | Activity (Candida albicans) | Activity (Staphylococcus aureus [8]) | IC50 (Plasmodium falciparum [9]) | Activity (Plasmodium berghei) | Activity (Xanthomonas oryzae) | Activity [10] | other results
C=CC(C)(C)c1c(O)cc2c(c1O)C(=O)[C@@]1(C)O[C@@]1(CC=C(C)C)C2=O | 0.7 µM | 8.8 | Active | 3.5 | Active | 0.2 µM | Active | Active | Active | 0.08 µM | 47.6% | Active | Non-Toxic | Activity [5]: Non-Toxic
C=CC(C)(C)c1c(O)cc2c(c1O)C(=O)[C@@](C)(O)[C@@H](CC=C(C)C)C2=O | 68.8 µM | 3.2 | Active | 4.7 | Active | 14.5 µM | Active | Active | Active | 21.7 µM | – | Active | – | –
CCN(CC)CCCC(C)Nc1ccnc2cc(Cl)ccc12 (centres undefined) [CHLOROQUINE] | > 25 µM | – | – | – | – | – | – | – | – | – | – | – | – | –
C[C@H]1[C@H](OC(=O)CCC(=O)O)O[C@@H]2O[C@@]3(C)CC[C@H]4[C@H](C)CC[C@@H]1[C@@]24OO3 [ARTESUNATE] | – | – | – | – | – | – | – | – | – | – | 94.2% | – | Non-Toxic | –
CC(C)=CCC1=C(O)C(=O)c2c(O)ccc(O)c2C1=O | – | – | – | – | – | – | – | – | – | – | – | – | – | IC50 (Plasmodium falciparum [11]): 0.82 µg/mL (≈ 2.99 µM)
COC1=C(C)C(=O)c2c(cc3c(c2O)C(C)(CCC=C(C)C)C(C)O3)C1=O (centres undefined) | 1.7 µM | 28.3 | – | 5.7 | Active | 0.3 µM | Active | Active | Active | 0.06 µM | 43.1% | Active | Non-Toxic | Activity (Kocuria rhizophila [12]): inactive
C=CC(C)(C)c1c(O)cc2c(c1O)C(=O)[C@@](C)(O)[C@H](CC=C(C)C)C2=O | 94.2 µM | 1.8 | Active | 2.2 | Active | 43.3 µM | Active | Active | Active | 51.2 µM | – | Active | – | –
COC1=C(C)C(=O)c2c(cc(O)c3c2O[C@H](C)[C@]3(C)CCC=C(C)C)C1=O | – | – | – | – | – | – | – | – | – | – | – | – | – | IC50 (B16): 0.63 µg/mL (≈ 1.7 µM); IC50 (HeLa S3): 1.22 µg/mL (≈ 3.29 µM)
C[C@@H]1CC[C@H]2[C@@H](C)C(=O)O[C@@H]3O[C@@]4(C)CC[C@@H]1[C@]32OO4 [ARTEMISININ] | > 25 µM | – | – | – | – | – | – | – | – | – | – | – | – | selectivity ratio [13]: > 800; IC50 (Plasmodium falciparum [14]): 0.03 µM; selectivity ratio [15]: > 800
